Data as given in patent US20260053811A1, “METHODS OF TREATING HYPERTENSION IN OBESE SUBJECTS” (Mineralys Therapeutics, Inc., priority 2022, published 2026).

System: hypertensive subjects
Test: Adverse events (TEAEs, SAEs, AESI, study drug discontinuation, dose modification);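 note: counts of spontaneously reported adverse events in the Safety Analysis Set, subjects grouped by treatment actually received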
Type: in vivo, human
From the text: In analyses performed on the Safety Analysis Set, subjects will be analyzed according to their actual treatment received.

CC(=O)N[C@H]1CC[C@H](NC(=O)CN2CCN(c3nncc(-c4ccc(C)cc4)n3)CC2)CC1 [Compound A HBr]
Dose titration: Hyperkalemia, subjects n (%) (100mg QD Pooled (N 60)): 2 (3.3%)
Dose titration: Hyponatremia, subjects n (%) (100mg QD Pooled (N 60)): 1 (1.7%)
Dose titration: Other possibly related, subjects n (%) (100mg QD Pooled (N 60)): 0
Dose titration: Other unrelated, subjects n (%) (100mg QD Pooled (N 60)): 0
Study drug discontinuation: Hyperkalemia, subjects n (%) (100mg QD Pooled (N 60)): 2 (3.3%)
Study drug discontinuation: Hyponatremia, subjects n (%) (100mg QD Pooled (N 60)): 1 (1.7%)
Study drug discontinuation: Hypotension, subjects n (%) (100mg QD Pooled (N 60)): 2 (3.3%)
Study drug discontinuation: Other possibly related, subjects n (%) (100mg QD Pooled (N 60)): 1 (1.7%)
Study drug discontinuation: Other unrelated, subjects n (%) (100mg QD Pooled (N 60)): 4 (6.7%)
Subjects with TEAE resulting in dose modification (Part 1): 24
Dose titration: Hyperkalemia, subjects n (%) (Part 1 100mg QD (N 29)): 1 (3.4%)
Dose titration: Hyponatremia, subjects n (%) (Part 1 100mg QD (N 29)): 0
Dose titration: Other possibly related, subjects n (%) (Part 1 100mg QD (N 29)): 0
Dose titration: Other unrelated, subjects n (%) (Part 1 100mg QD (N 29)): 0
Study drug discontinuation: Hyperkalemia, subjects n (%) (Part 1 100mg QD (N 29)): 2 (6.9%)
Study drug discontinuation: Hyponatremia, subjects n (%) (Part 1 100mg QD (N 29)): 0
Study drug discontinuation: Hypotension, subjects n (%) (Part 1 100mg QD (N 29)): 1 (3.4%)
Study drug discontinuation: Other possibly related, subjects n (%) (Part 1 100mg QD (N 29)): 1 (3.4%)
Study drug discontinuation: Other unrelated, subjects n (%) (Part 1 100mg QD (N 29)): 3 (6.0%)
On-treatment TEAE: Blood and lymphatic system disorders (Part 1, 12.5 mg BID (N = 22)): 0 n (%)
On-treatment TEAE: Blood and lymphatic system disorders, Mild (Part 1, 12.5 mg BID (N = 22)): 0 n (%)
On-treatment TEAE: Blood creatinine increased (Part 1, 12.5 mg BID (N = 22)): 0 n (%)
On-treatment TEAE: Blood creatinine increased, Mild (Part 1, 12.5 mg BID (N = 22)): 0 n (%)
On-treatment TEAE: Cardiac disorders (Part 1, 12.5 mg BID (N = 22)): 1 (4.5) n (%)
On-treatment TEAE: Cortisol decreased (Part 1, 12.5 mg BID (N = 22)): 2 (9.1) n (%)
On-treatment TEAE: Cortisol decreased, Mild (Part 1, 12.5 mg BID (N = 22)): 2 (9.1) n (%)
On-treatment TEAE: Dizziness (Part 1, 12.5 mg BID (N = 22)): 0 n (%)
On-treatment TEAE: Gastrointestinal disorders (Part 1, 12.5 mg BID (N = 22)): 0 n (%)
On-treatment TEAE: Gastrointestinal disorders, Mild (Part 1, 12.5 mg BID (N = 22)): 0 n (%)
On-treatment TEAE: General disorders and administration site conditions (Part 1, 12.5 mg BID (N = 22)): 2 (9.1) n (%)
On-treatment TEAE: General disorders and administration site conditions, Mild (Part 1, 12.5 mg BID (N = 22)): 1 (4.5) n (%)
On-treatment TEAE: Glomerular filtration rate decreased (Part 1, 12.5 mg BID (N = 22)): 3 (13.6) n (%)
On-treatment TEAE: Glomerular filtration rate decreased, Mild (Part 1, 12.5 mg BID (N = 22)): 3 (13.6) n (%)
On-treatment TEAE: Headache (Part 1, 12.5 mg BID (N = 22)): 0 n (%)
On-treatment TEAE: Headache, Mild (Part 1, 12.5 mg BID (N = 22)): 0 n (%)
On-treatment TEAE: Hyperkalaemia (Part 1, 12.5 mg BID (N = 22)): 5 (22.7) n (%)
On-treatment TEAE: Hyperkalaemia, Mild (Part 1, 12.5 mg BID (N = 22)): 4 (18.2) n (%)
On-treatment TEAE: Hyperkalaemia, Moderate (Part 1, 12.5 mg BID (N = 22)): 1 (4.5) n (%)
On-treatment TEAE: Hyperkalaemia, Severe (Part 1, 12.5 mg BID (N = 22)): 0 n (%)
On-treatment TEAE: Hypertension (Part 1, 12.5 mg BID (N = 22)): 0 n (%)
On-treatment TEAE: Hypertension, Moderate (Part 1, 12.5 mg BID (N = 22)): 0 n (%)
On-treatment TEAE: Infections and infestations (Part 1, 12.5 mg BID (N = 22)): 1 (4.5) n (%)
On-treatment TEAE: Infections and infestations, Mild (Part 1, 12.5 mg BID (N = 22)): 0 n (%)
On-treatment TEAE: Infections and infestations, Moderate (Part 1, 12.5 mg BID (N = 22)): 1 (4.5) n (%)
On-treatment TEAE: Investigations (Part 1, 12.5 mg BID (N = 22)): 6 (27.3) n (%)
On-treatment TEAE: Investigations, Mild (Part 1, 12.5 mg BID (N = 22)): 5 (22.7) n (%)
On-treatment TEAE: Investigations, Moderate (Part 1, 12.5 mg BID (N = 22)): 1 (4.5) n (%)
On-treatment TEAE: Metabolism and nutrition disorders (Part 1, 12.5 mg BID (N = 22)): 5 (22.7) n (%)
On-treatment TEAE: Metabolism and nutrition disorders, Mild (Part 1, 12.5 mg BID (N = 22)): 4 (18.2) n (%)
On-treatment TEAE: Metabolism and nutrition disorders, Moderate (Part 1, 12.5 mg BID (N = 22)): 1 (4.5) n (%)
On-treatment TEAE: Nervous system disorders (Part 1, 12.5 mg BID (N = 22)): 1 (4.5) n (%)
On-treatment TEAE: Nervous system disorders, Mild (Part 1, 12.5 mg BID (N = 22)): 1 (4.5) n (%)
On-treatment TEAE: Orthostatic hypotension (Part 1, 12.5 mg BID (N = 22)): 1 (4.5) n (%)
On-treatment TEAE: Orthostatic hypotension, Mild (Part 1, 12.5 mg BID (N = 22)): 1 (4.5) n (%)
On-treatment TEAE: Psychiatric disorders (Part 1, 12.5 mg BID (N = 22)): 1 (4.5) n (%)
On-treatment TEAE: Psychiatric disorders, Moderate (Part 1, 12.5 mg BID (N = 22)): 1 (4.5) n (%)
On-treatment TEAE: Urinary tract infection (Part 1, 12.5 mg BID (N = 22)): 0 n (%)
On-treatment TEAE: Urinary tract infection, Mild (Part 1, 12.5 mg BID (N = 22)): 0 n (%)
On-treatment TEAE: Vascular disorders (Part 1, 12.5 mg BID (N = 22)): 2 (9.1) n (%)
On-treatment TEAE: Vascular disorders, Mild (Part 1, 12.5 mg BID (N = 22)): 2 (9.1) n (%)
On-treatment TEAE: Vascular disorders, Moderate (Part 1, 12.5 mg BID (N = 22)): 0 n (%)
On-treatment TEAE: any, Mild (Part 1, 12.5 mg BID (N = 22)): 8 (36.4) n (%)
On-treatment TEAE: any, Moderate (Part 1, 12.5 mg BID (N = 22)): 5 (22.7) n (%)
On-treatment TEAE: any, Severe (Part 1, 12.5 mg BID (N = 22)): 0 n (%)
Subjects with any On-treatment TEAEs leading to withdrawal from study drug (Part 1, 12.5 mg BID (N = 22)): 1 (4.5) n (%)
TEAE leading to permanent discontinuation from study drug: Activated partial thromboplastin time prolonged (Part 1, 12.5 mg BID (N = 22)): 0 n (%)
TEAE leading to permanent discontinuation from study drug: Cardiac disorders (Part 1, 12.5 mg BID (N = 22)): 0 n (%)
TEAE leading to permanent discontinuation from study drug: Coronary artery disease (Part 1, 12.5 mg BID (N = 22)): 0 n (%)
TEAE leading to permanent discontinuation from study drug: Dizziness (Part 1, 12.5 mg BID (N = 22)): 0 n (%)
TEAE leading to permanent discontinuation from study drug: Hyperkalaemia (Part 1, 12.5 mg BID (N = 22)): 0 n (%)
TEAE leading to permanent discontinuation from study drug: Hypertension (Part 1, 12.5 mg BID (N = 22)): 0 n (%)
TEAE leading to permanent discontinuation from study drug: Hypotension (Part 1, 12.5 mg BID (N = 22)): 0 n (%)
TEAE leading to permanent discontinuation from study drug: Investigations (Part 1, 12.5 mg BID (N = 22)): 0 n (%)
TEAE leading to permanent discontinuation from study drug: Metabolism and nutrition disorders (Part 1, 12.5 mg BID (N = 22)): 0 n (%)
TEAE leading to permanent discontinuation from study drug: Nervous system disorders (Part 1, 12.5 mg BID (N = 22)): 0 n (%)
TEAE leading to permanent discontinuation from study drug: Orthostatic hypotension (Part 1, 12.5 mg BID (N = 22)): 1 (4.5) n (%)
TEAE leading to permanent discontinuation from study drug: Vascular disorders (Part 1, 12.5 mg BID (N = 22)): 1 (4.5) n (%)
On-treatment TEAE: Blood and lymphatic system disorders (Part 1, 12.5 mg QD (N = 23)): 0 n (%)
On-treatment TEAE: Blood and lymphatic system disorders, Mild (Part 1, 12.5 mg QD (N = 23)): 0 n (%)
On-treatment TEAE: Blood creatinine increased (Part 1, 12.5 mg QD (N = 23)): 0 n (%)
On-treatment TEAE: Blood creatinine increased, Mild (Part 1, 12.5 mg QD (N = 23)): 0 n (%)
On-treatment TEAE: Cardiac disorders (Part 1, 12.5 mg QD (N = 23)): 2 (8.7) n (%)
On-treatment TEAE: Cortisol decreased (Part 1, 12.5 mg QD (N = 23)): 0 n (%)
On-treatment TEAE: Cortisol decreased, Mild (Part 1, 12.5 mg QD (N = 23)): 0 n (%)
On-treatment TEAE: Dizziness (Part 1, 12.5 mg QD (N = 23)): 1 (4.3) n (%)
On-treatment TEAE: Gastrointestinal disorders (Part 1, 12.5 mg QD (N = 23)): 2 (8.7) n (%)
On-treatment TEAE: Gastrointestinal disorders, Mild (Part 1, 12.5 mg QD (N = 23)): 1 (4.3) n (%)
On-treatment TEAE: General disorders and administration site conditions (Part 1, 12.5 mg QD (N = 23)): 1 (4.3) n (%)
On-treatment TEAE: General disorders and administration site conditions, Mild (Part 1, 12.5 mg QD (N = 23)): 0 n (%)
On-treatment TEAE: Glomerular filtration rate decreased (Part 1, 12.5 mg QD (N = 23)): 1 (4.3) n (%)
On-treatment TEAE: Glomerular filtration rate decreased, Mild (Part 1, 12.5 mg QD (N = 23)): 1 (4.3) n (%)
On-treatment TEAE: Headache (Part 1, 12.5 mg QD (N = 23)): 0 n (%)
On-treatment TEAE: Headache, Mild (Part 1, 12.5 mg QD (N = 23)): 0 n (%)
On-treatment TEAE: Hyperkalaemia (Part 1, 12.5 mg QD (N = 23)): 6 (26.1) n (%)
On-treatment TEAE: Hyperkalaemia, Mild (Part 1, 12.5 mg QD (N = 23)): 4 (17.4) n (%)
On-treatment TEAE: Hyperkalaemia, Moderate (Part 1, 12.5 mg QD (N = 23)): 1 (4.3) n (%)
On-treatment TEAE: Hyperkalaemia, Severe (Part 1, 12.5 mg QD (N = 23)): 1 (4.3) n (%)
On-treatment TEAE: Hypertension (Part 1, 12.5 mg QD (N = 23)): 2 (8.7) n (%)
On-treatment TEAE: Hypertension, Moderate (Part 1, 12.5 mg QD (N = 23)): 1 (4.3) n (%)
On-treatment TEAE: Infections and infestations (Part 1, 12.5 mg QD (N = 23)): 3 (13.0) n (%)
On-treatment TEAE: Infections and infestations, Mild (Part 1, 12.5 mg QD (N = 23)): 3 (13.0) n (%)
